Results taken from US8906825B2, “Herbicidal compositions comprising 4-amino-3-chloro-5-fluoro-6-(4-chloro-2-fluoro-3-methoxyphenyl) pyridine-2-carboxylic acid or a derivative thereof and triazolopyrimidine sulfonamides” (Dow AgroSciences LLC, priority 2012, dated 2014).

Columns and labels:
Type in all cases: in vivo
[1] = system: CYPIR (Cyperus iria L., rice flatsedge); experiment: Postemergence foliar-applied herbicidal mixtures, direct seeded rice, greenhouse (Example I)
[2] = system: ECHCG (Echinochloa crusgalli (L.) Beauv., barnyardgrass); experiment: In-water applied herbicidal mixtures, transplanted paddy rice, greenhouse (Example II)
[3] = system: ECHCG (Echinochloa crusgalli (L.) Beauv., barnyardgrass); experiment: Postemergence foliar-applied herbicidal mixtures, direct seeded rice, greenhouse (Example I)
[4] = Compound A Benzyl Ester 4.38 gae/ha
[5] = Compound A Benzyl Ester 8.75 gae/ha

COc1c(Cl)ccc(-c2nc(C(=O)OCc3ccccc3)c(Cl)c(N)c2F)c1F [Compound A Benzyl Ester, benzyl ester of 4-amino-3-chloro-5-fluoro-6-(4-chloro-2-fluoro-3-methoxy-phenyl)pyridine-2-carboxylic acid]
Visual Weed Control (%) - 20 DAA CYPIR Obs [1, 4]: 15%
Visual Weed Control (%) - 22 DAA CYPIR Obs ([1]; Compound A Benzyl Ester 8 gae/ha): 20%
Visual Weed Control (%) - 20 DAA CYPIR Obs [1, 5]: 60%
Visual Weed Control (%) - 22 DAA CYPIR Obs ([1]; Compound A Benzyl Ester 16 gae/ha): 85%
Visual Weed Control (%) - 20 DAA CYPIR Obs ([1]; Compound A Benzyl Ester 17.5 gae/ha): 90%
Visual Weed Control (%) - 21 DAA ECHCG Obs [2, 4]: 20%
Visual Weed Control (%) - 21 DAA ECHCG Obs [2, 5]: 85%

COc1cnc(OC)n2nc(NS(=O)(=O)c3c(OCC(F)F)cccc3C(F)(F)F)nc12 [Penoxsulam, 2-(2,2-difluoroethoxy)-N-(5,8-dimethoxy[1,2,4]triazolo[1,5-c]pyrimidin-2-yl)-6-(trifluoromethyl)benzenesulfonamide, reference compound]
Visual Weed Control (%) - 27 DAA ECHCG Obs ([3]; Penoxsulam 4.38 gai/ha): 0%
Visual Weed Control (%) - 27 DAA ECHCG Obs ([3]; Penoxsulam 8.75 gai/ha): 30%
